For 19 molecules, GI50 and TGI results are on record in PubChem BioAssay (NCI).

Each structure is given as a SMILES string.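 Interpolation was linear, between the two tested concentrations surrounding the appropriate level; five concentrations were tested over 48 hours in 96-well plates. GI50: concentration for 50% inhibition of growth. Definition used: TGI = concentration required for complete inhibition of growth.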 Where a SMILES comes first, the peptide text is derived from it. [ ]: non-standard residue; d: D form. The star is where a group is joined. Phe(4-NO2) = N[CH](Cc1ccc([N+](=O)[O-])cc1)C(=O)O; Boc = CC(C)(C)OC(=O)*; OBn = c1ccc(CO*)cc1

Among the test systems are A498 renal; HCT-15 colon; LOX IMVI melanoma; MDA-MB-231 breast; SK-MEL-2 melanoma; SK-MEL-5 melanoma; SR leukemia; T-47D breast; TK-10 renal; UO-31 renal.
What all share (test): NCI-60 cell line screen, 48 h

For `CC(=O)O[C@H]1CC[C@@]2(C)C(=CC[C@@H]3[C@@H]2CC[C@]2(C)C(c4cccnc4)=CC[C@@H]32)C1`, the GI50 with A498 renal is 10.4 µM; in the assay with HCT-15 colon it was 4.48 µM; with LOX IMVI melanoma it was 6.49 µM; with MDA-MB-231 breast it was 5.23 µM; in the assay on SK-MEL-2 melanoma, over 100 µM; with SK-MEL-5 melanoma, 2.89 µM. Also, the GI50 in the assay with SR leukemia is 3.01 µM; with T-47D breast it was 2.81 µM; in the assay with TK-10 renal it was 29.8 µM; in the assay with UO-31 renal, 5.47 µM. The TGI in the assay with A498 renal was 74 µM; in the assay on HCT-15 colon, over 100 µM; in the assay on LOX IMVI melanoma, over 100 µM; in the assay on MDA-MB-231 breast, 33.7 µM; with SK-MEL-2 melanoma, over 100 µM; with SK-MEL-5 melanoma, 10.1 µM. Besides, the TGI is 8.35 µM in the assay with SR leukemia, 55.7 µM in the assay on T-47D breast, over 100 µM with TK-10 renal and over 100 µM in the assay on UO-31 renal.
For the molecule `COC(=O)CCC(NC(=O)OC(C)(C)C)C(=O)NC(Cc1ccc([N+](=O)[O-])cc1)C(=O)NCC(=O)OCc1ccccc1` (configuration not stated) (Boc-Glu(OMe)-[Phe(4-NO2)]-Gly-OBn; configuration not given here), the TGI with A498 renal was over 100 µM; in the assay with HCT-15 colon it was over 100 µM; in the assay on LOX IMVI melanoma it was over 86.3 µM; with MDA-MB-231 breast it was over 91.6 µM; with SK-MEL-2 melanoma, over 100 µM; in the assay on SK-MEL-5 melanoma it was over 100 µM. Besides, the TGI with SR leukemia, in the assay with T-47D breast, in the assay on TK-10 renal and in the assay with UO-31 renal was over 100 µM each time.
On to `Cc1ccc([N+](=O)[O-])cc1S(=O)(=O)Nc1ccc(C2=NN(c3ccc([N+](=O)[O-])cc3[N+](=O)[O-])C(c3ccccc3)C2)cc1` (configuration not stated), for which the TGI in the assay on HCT-15 colon is 36.8 µM; in the assay with LOX IMVI melanoma, 32.2 µM; in the assay with MDA-MB-231 breast it was 33.4 µM; in the assay with SK-MEL-2 melanoma it was 33.7 µM; in the assay with SK-MEL-5 melanoma, 25.1 µM; in the assay with SR leukemia, 90 µM. Further, the TGI with T-47D breast is over 100 µM; with TK-10 renal, 61.8 µM; in the assay on UO-31 renal it was 31.3 µM.
On to `CC(=O)Oc1ccc(/C=C/C(=O)O[C@@H](C)[C@H](C)OC(=O)/C=C/c2ccc(OC(C)=O)c(OC(C)=O)c2)cc1OC(C)=O`, for which the TGI in the assay with A498 renal was 93.9 µM; in the assay on HCT-15 colon, 33.1 µM; in the assay on LOX IMVI melanoma, 29 µM; in the assay with MDA-MB-231 breast, over 100 µM; in the assay on SK-MEL-2 melanoma, over 100 µM; in the assay with SK-MEL-5 melanoma, 29.2 µM. The TGI was over 100 µM with SR leukemia, 61.2 µM with T-47D breast, over 100 µM in the assay on TK-10 renal and over 100 µM with UO-31 renal.
Take `CC(C)(C)OC(=O)n1cc(C2CNC(=O)C23CCC(=O)N3Cc2ccccc2)c2ccccc21` (configuration not stated): the TGI in the assay with A498 renal was 35.3 µM; in the assay with LOX IMVI melanoma it was 44 µM; in the assay on MDA-MB-231 breast it was 39.9 µM; with SK-MEL-2 melanoma, 33.4 µM; in the assay with SK-MEL-5 melanoma it was 31.9 µM; in the assay with SR leukemia, over 100 µM. Further, the TGI was over 100 µM in the assay on T-47D breast, 44.4 µM in the assay with TK-10 renal and 49 µM with UO-31 renal.
With `CC(=O)c1ccc(N=Nc2ccc3nonc3c2N)cc1`, the TGI in the assay with HCT-15 colon, in the assay with LOX IMVI melanoma, in the assay with MDA-MB-231 breast, in the assay on SK-MEL-2 melanoma, in the assay with SK-MEL-5 melanoma and in the assay on SR leukemia was over 100 µM each time. The TGI in the assay on T-47D breast, with TK-10 renal and in the assay with UO-31 renal was over 100 µM in each case.
On to `CN(C)c1ccc(/C=N/Nc2nc3ccccc3c(=O)n2-c2ccccc2)cc1`, for which the TGI in the assay with A498 renal, in the assay on HCT-15 colon, with LOX IMVI melanoma, in the assay on MDA-MB-231 breast, in the assay on SK-MEL-5 melanoma and in the assay on SR leukemia was over 100 µM throughout. Besides, the TGI in the assay with T-47D breast, in the assay on TK-10 renal and with UO-31 renal was over 100 µM each time.
On to `C=CCC(C)C12CCNC(Cc3ccc(O)cc31)C2C` (configuration not stated), for which the TGI in the assay with A498 renal, with HCT-15 colon, in the assay with LOX IMVI melanoma, in the assay on MDA-MB-231 breast, in the assay on SK-MEL-5 melanoma and in the assay with SR leukemia was over 100 µM each time. Moreover, the TGI in the assay with T-47D breast, in the assay on TK-10 renal and in the assay on UO-31 renal was over 100 µM each time.
With `CCNC(=O)Nc1cccc(C)n1`, the TGI with A498 renal, in the assay with MDA-MB-231 breast, in the assay with SK-MEL-5 melanoma, in the assay on SR leukemia, with T-47D breast and with TK-10 renal was over 100 µM each time. In the assay on UO-31 renal, this molecule registered a TGI of over 100 µM.
On to `CSc1nc(NC2CCCC2)c2cc[nH]c2n1`, for which the TGI in the assay with A498 renal is 80.3 µM; with HCT-15 colon, over 100 µM; in the assay on LOX IMVI melanoma, over 100 µM; in the assay with MDA-MB-231 breast, over 100 µM; in the assay on SK-MEL-5 melanoma it was 96.6 µM; with SR leukemia, 61.6 µM. The TGI with T-47D breast, in the assay on TK-10 renal and in the assay with UO-31 renal was over 100 µM throughout.
Take `CC(C)CCCC(C)[C@H]1CCC2[C@@H]3CCC4Cc5nc6c(nc5C[C@]4(C)C3CC[C@@]21C)CC1CC[C@@H]2C(C[C@@H](O)[C@@]3(C)C2C[C@@H]2OC4(CCC(C)CO4)C(C)[C@@H]23)[C@@]1(C)C6` (some centres not stated): the TGI with HCT-15 colon, in the assay on MDA-MB-231 breast, in the assay with SK-MEL-5 melanoma, in the assay with SR leukemia, in the assay on T-47D breast and in the assay on TK-10 renal was over 100 µM each time.
For `CC(C)(CO)CNc1cc(=O)[nH]c(N)n1`, the TGI with A498 renal, in the assay with HCT-15 colon, in the assay on LOX IMVI melanoma, in the assay with MDA-MB-231 breast, in the assay with SK-MEL-2 melanoma and with SK-MEL-5 melanoma was over 100 µM each time. The TGI with SR leukemia, in the assay with T-47D breast and in the assay on UO-31 renal was over 100 µM in each case.
Consider `Cc1ccc(C(=O)N(C2CCCCC2)C2CCCCC2)cc1N=NN(C)C`, for which the TGI in the assay on HCT-15 colon came to 27.1 µM; in the assay with LOX IMVI melanoma it was 30.2 µM; with MDA-MB-231 breast it was 25.7 µM; in the assay on SK-MEL-2 melanoma it was 7.29 µM; in the assay on SK-MEL-5 melanoma, 28.1 µM; in the assay with SR leukemia it was 76.7 µM. The results for the TGI in the assay on T-47D breast, in the assay with TK-10 renal and with UO-31 renal were 38.7 µM, 24 µM and 26 µM, respectively.
For `OC(C1CCC=NN1C(O)(C(F)(F)F)C(F)(F)F)(C(F)(F)F)C(F)(F)F` (configuration not stated), the TGI in the assay on A498 renal, in the assay with HCT-15 colon, in the assay with LOX IMVI melanoma, in the assay with MDA-MB-231 breast, in the assay on SK-MEL-2 melanoma and in the assay on SK-MEL-5 melanoma was over 10 µM throughout. In addition, the TGI with SR leukemia, with T-47D breast and in the assay on TK-10 renal was over 10 µM throughout.
As for `CC(=O)OC[C@H]1O[C@@H](O[C@H]2[C@H](OC(C)=O)C=CO[C@@H]2COC(C)=O)C(OC(C)=O)[C@H]2OC(C)(C)O[C@H]21` (some centres not stated), the TGI in the assay on HCT-15 colon, in the assay on LOX IMVI melanoma, in the assay on MDA-MB-231 breast, in the assay with SK-MEL-5 melanoma, in the assay on SR leukemia and in the assay on T-47D breast was over 100 µM in each case. Moreover, the TGI in the assay on TK-10 renal and with UO-31 renal was over 100 µM in each case.
Regarding `COc1ccc(N(C(=O)Nc2ccc(Cl)c(Cl)c2)c2ccccc2)cc1`, the TGI with A498 renal, in the assay on HCT-15 colon, with LOX IMVI melanoma, in the assay with MDA-MB-231 breast, in the assay on SK-MEL-5 melanoma and in the assay with SR leukemia was over 10 µM throughout. Moreover, the TGI in the assay with T-47D breast, in the assay on TK-10 renal and in the assay with UO-31 renal was over 10 µM each time.
Regarding `CC(=O)OC(Cc1cc(C=C(C(F)(F)F)C(F)(F)F)cc(C)n1)(C(F)(F)F)C(F)(F)F`, the TGI in the assay with A498 renal was 3.3 µM; with HCT-15 colon, over 100 µM; in the assay on LOX IMVI melanoma, 3.49 µM; in the assay with MDA-MB-231 breast it was 4.65 µM; with SK-MEL-2 melanoma, over 100 µM; in the assay on SK-MEL-5 melanoma, 2.82 µM. The TGI came to 6.88 µM in the assay with T-47D breast, 6.7 µM in the assay with TK-10 renal and 3.08 µM in the assay with UO-31 renal.
Regarding `O=C(Nc1sccc1S(=O)(=O)c1ccccc1)c1cccnc1`, the TGI in the assay with HCT-15 colon is over 100 µM; in the assay on LOX IMVI melanoma it was over 100 µM; with MDA-MB-231 breast, over 100 µM; in the assay with SK-MEL-2 melanoma, over 100 µM; in the assay with SK-MEL-5 melanoma, over 26.3 µM; with SR leukemia, over 100 µM. The TGI with T-47D breast, in the assay on TK-10 renal and in the assay on UO-31 renal was over 100 µM throughout.
As to `CC(=O)C(C(C)=O)=C1CCCC(O)O1` (configuration not stated), the TGI in the assay with A498 renal, with HCT-15 colon, in the assay on MDA-MB-231 breast, in the assay on SK-MEL-5 melanoma, in the assay with SR leukemia and in the assay with T-47D breast was over 100 µM in each case. Besides, the TGI with TK-10 renal and with UO-31 renal was over 100 µM in each case.
